Where only a bound is given, the exact number is not on record here.

The target of assay [1] is T1, human TLR7 (Homo sapiens, UniProt Q9NYK1).
T1 construct: expressed in transfected cells; host or cells: HEK293
T1 sequence (Q9NYK1 27-1049): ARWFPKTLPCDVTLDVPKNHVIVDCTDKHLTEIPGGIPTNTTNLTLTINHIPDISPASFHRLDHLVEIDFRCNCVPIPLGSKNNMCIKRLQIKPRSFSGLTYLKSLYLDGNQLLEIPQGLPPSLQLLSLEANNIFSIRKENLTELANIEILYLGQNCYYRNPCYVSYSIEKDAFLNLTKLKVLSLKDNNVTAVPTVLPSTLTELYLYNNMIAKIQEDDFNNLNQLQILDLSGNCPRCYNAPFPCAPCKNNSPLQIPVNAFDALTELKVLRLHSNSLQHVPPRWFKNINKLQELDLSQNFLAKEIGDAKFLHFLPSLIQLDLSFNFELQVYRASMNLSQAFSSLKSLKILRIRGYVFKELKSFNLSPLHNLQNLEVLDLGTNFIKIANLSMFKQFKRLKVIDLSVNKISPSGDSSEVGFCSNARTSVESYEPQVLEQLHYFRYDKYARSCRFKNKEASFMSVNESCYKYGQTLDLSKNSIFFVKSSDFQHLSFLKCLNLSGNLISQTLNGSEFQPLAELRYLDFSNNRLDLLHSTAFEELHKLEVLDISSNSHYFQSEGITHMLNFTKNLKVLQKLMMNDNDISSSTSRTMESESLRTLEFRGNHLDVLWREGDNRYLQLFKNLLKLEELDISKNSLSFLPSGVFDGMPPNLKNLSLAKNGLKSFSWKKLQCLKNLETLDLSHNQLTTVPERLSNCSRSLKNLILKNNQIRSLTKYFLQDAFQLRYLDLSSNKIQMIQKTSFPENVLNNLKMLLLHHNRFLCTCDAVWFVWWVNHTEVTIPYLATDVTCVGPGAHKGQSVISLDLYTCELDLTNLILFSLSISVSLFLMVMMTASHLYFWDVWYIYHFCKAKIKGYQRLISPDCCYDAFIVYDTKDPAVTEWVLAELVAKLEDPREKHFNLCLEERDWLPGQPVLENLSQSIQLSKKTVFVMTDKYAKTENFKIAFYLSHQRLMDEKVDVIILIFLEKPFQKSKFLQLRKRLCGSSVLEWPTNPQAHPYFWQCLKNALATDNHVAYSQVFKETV
Briefly: TLR7 NFκB-luc cellular reporter assay in transiently transfected HEK293 cells. The class given is cell-based. The note with it: lowest effective concentration; HEK293 cells transfected with wild type TLR7 and NFκB-luc reporter, 6 h incubation. As for the experimental part: (§1) The ability of compounds to activate human TLR7 and/or TLR8 was assessed in a cellular reporter assay using HEK293 cells transiently transfected with a TLR7 or TLR8 expression vector and NFκB-luc reporter construct. In one instance, the TLR expression construct expresses the respective wild type sequence or a mutant sequence comprising a deletion in the second leucine-rich repeat of the TLR.
(§2) HEK293 cells were grown in culture medium (DMEM supplemented with 10% FCS and 2 mM Glutamine). For transfection of cells in 10 cm dishes, cells were detached with Trypsin-EDTA, transfected with a mix of CMV-TLR7 or TLR8 plasmid (750 ng), NFκB-luc plasmid (375 ng) and a transfection reagent and incubated 24 h at 37° C. in a humidified 5% C02 atmosphere. Transfected cells were then detached with Trypsin-EDTA, washed in PBS and re-suspended in medium to a density of 1.67×10^5 cells/mL. Thirty microliters of cells were then dispensed into each well in 384-well plates, where 10 μL of compound in 4% DMSO was already present. Following 6 h incubation at 37° C., 5% CO2, the luciferase activity was determined by adding 15 μl of STEADY LITE PLUS substrate (PERKIN ELMER) to each well and readout performed on a VIEWLUX ULTRAHTS microplate imager (PERKIN ELMER). Dose response curves were generated from measurements performed in quadruplicates. Lowest effective concentrations (LEC) values, defined as the concentration that induces an effect which is at least two-fold above the standard deviation of the assay, were determined for each compound.

For assay [2], the target named is T2, human TLR8 (Homo sapiens, UniProt Q9NR97).
T2 construct: expressed in transfected cells; host or cells: HEK293
T2 sequence (Q9NR97 27-1041): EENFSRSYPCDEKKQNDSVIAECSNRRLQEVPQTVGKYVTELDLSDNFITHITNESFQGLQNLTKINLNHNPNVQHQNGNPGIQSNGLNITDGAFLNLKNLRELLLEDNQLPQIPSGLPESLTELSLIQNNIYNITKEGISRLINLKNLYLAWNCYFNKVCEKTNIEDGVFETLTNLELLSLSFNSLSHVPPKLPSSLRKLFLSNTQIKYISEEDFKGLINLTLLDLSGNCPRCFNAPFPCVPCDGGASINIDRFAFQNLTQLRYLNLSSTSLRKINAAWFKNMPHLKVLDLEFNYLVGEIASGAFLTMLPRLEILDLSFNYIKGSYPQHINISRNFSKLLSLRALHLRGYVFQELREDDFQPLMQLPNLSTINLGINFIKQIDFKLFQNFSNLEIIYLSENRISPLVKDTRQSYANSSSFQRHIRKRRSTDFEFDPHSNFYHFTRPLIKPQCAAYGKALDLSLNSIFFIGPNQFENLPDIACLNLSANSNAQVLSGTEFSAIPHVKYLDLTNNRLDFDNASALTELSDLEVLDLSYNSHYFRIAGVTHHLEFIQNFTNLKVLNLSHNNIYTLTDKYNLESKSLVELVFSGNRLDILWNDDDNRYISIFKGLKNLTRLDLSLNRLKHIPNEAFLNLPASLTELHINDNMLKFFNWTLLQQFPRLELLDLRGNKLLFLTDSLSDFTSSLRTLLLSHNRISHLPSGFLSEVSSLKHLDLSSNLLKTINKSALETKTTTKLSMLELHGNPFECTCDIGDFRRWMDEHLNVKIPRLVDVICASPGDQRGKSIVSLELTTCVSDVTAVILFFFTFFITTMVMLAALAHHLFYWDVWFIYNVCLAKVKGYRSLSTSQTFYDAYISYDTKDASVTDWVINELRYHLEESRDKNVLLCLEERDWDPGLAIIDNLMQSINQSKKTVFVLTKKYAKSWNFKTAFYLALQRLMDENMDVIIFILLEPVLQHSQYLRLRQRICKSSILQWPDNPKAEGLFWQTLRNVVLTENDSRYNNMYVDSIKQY
As to the kind of experiment: TLR8 NFκB-luc cellular reporter assay in transiently transfected HEK293 cells. The note with it: lowest effective concentration; HEK293 cells transfected with wild type TLR8 and NFκB-luc reporter, 6 h incubation. Type of assay: cell-based. The method, then: as §1, §2
On the technique in general: In a reporter assay the amount or activity of a reporter protein is the signal.

On to `CCCC[C@H](CO)Nc1nc(N)nc2cc(C)ccc12` [Compound 14, (R)-2-((2-amino-7-methylquinazolin-4-yl)amino)hexan-1-ol], for which the hTLR7-wt (LEC) in assay [1] came out at 11.5 µM. The same molecule gave a hTLR8-wt (LEC) in assay [2] of 0.11 µM.

For the molecule `CCCC[C@H](CO)Nc1nc(N)nc2c(F)c(F)ccc12` [Compound 19, (R)-2-((2-amino-7,8-difluoroquinazolin-4-yl)amino)hexan-1-ol], the hTLR7-wt (LEC) in assay [1] was greater than 100 µM. Further, in assay [2], the hTLR8-wt (LEC) came out at 0.41 µM.

In assay [1], `CC[C@H](C)[C@H](CO)Nc1nc(N)nc2cccc(F)c12` [Compound 21, (2R,3S)-2-((2-amino-5-fluoroquinazolin-4-yl)amino)-3-methylpentan-1-ol] gave a hTLR7-wt (LEC) of 1.71 µM. The hTLR8-wt (LEC) in assay [2] is 0.09 µM.

The record behind these values is US11597704B2, “2,4-diaminoquinazoline derivatives and medical uses thereof” (Janssen Sciences Ireland Unlimited Company, priority 2018, dated 2023).
